For 8 compounds, GI50 and TGI results are on record in PubChem BioAssay (NCI).

Among the test systems are MOLT-4 leukemia; RPMI-8226 leukemia; SF-295 CNS; HOP-92 NSCLC; 786-0 renal; PC-3 prostate; HT29 colon; OVCAR-4 ovarian; COLO 205 colon; SN12C renal.
Common to all, as to assay: DTP human tumour cell line panel, 48 h

Usually GI50 stands for the concentration that inhibits growth by half. A word on the TGI: it is the concentration at which net growth stops. A high value points to less potent growth arrest.

The structures appear in SMILES notation. Several values for one entry are separate records, joined by “and”; a condition that tells them apart may be missing. Equal entries are not always repeated.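 A five-concentration, 48-hour dose response in 96-well plates underlies each endpoint, interpolated linearly between surrounding concentrations. Abbreviation: GI50, concentration required for 50% inhibition of growth. The concentration for full growth arrest is given as TGI.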

Regarding `COc1ccc(CCN(CC(=O)N(CC(N)=O)C2CCC[C@@H]2OCc2ccccc2)C(=O)CN(C(=O)CN(CCc2ccc(Cl)cc2)C(=O)CN(C(=O)CN(C)Cc2ccccc2F)[C@H](C)C2CCCCC2)[C@H](C)C2CCCCC2)cc1OC` (some centres not stated), the GI50 in the experiment on MOLT-4 leukemia was 0.689 µM; with RPMI-8226 leukemia it was 1.19 µM; in the experiment with SF-295 CNS it was 1.16 µM; in the experiment with HOP-92 NSCLC, 1.3 µM; in the experiment on 786-0 renal, 2.14 µM; in the experiment on PC-3 prostate it was 1.37 µM. Also, the GI50 in the experiment on HT29 colon was 1.25 µM; in the experiment with OVCAR-4 ovarian, 1.95 µM; with COLO 205 colon it was 0.893 µM; with SN12C renal it was 2.13 µM. Besides, the TGI with MOLT-4 leukemia is 2.46 µM; in the experiment with RPMI-8226 leukemia, 3.28 µM; in the experiment with SF-295 CNS, 3.49 µM; with HOP-92 NSCLC it was 31.3 µM; with 786-0 renal, above 50 µM; in the experiment with PC-3 prostate it was above 50 µM. Also, the TGI in the experiment with HT29 colon is 5.75 µM; with OVCAR-4 ovarian it was above 50 µM; in the experiment on COLO 205 colon, 2.4 µM; in the experiment on SN12C renal it was above 50 µM.

In the case of `Cn1cc(C2=C(c3cn(-c4ccccc4)c4ccccc34)C(=O)NC2=O)c2ccccc21`, the GI50 is 9.59 µM with MOLT-4 leukemia; 12.1 µM in the experiment on RPMI-8226 leukemia; 13.3 µM in the experiment on SF-295 CNS; above 25 µM with HOP-92 NSCLC; above 25 µM in the experiment on 786-0 renal; 9.86 µM in the experiment on PC-3 prostate. For the same compound, the GI50 in the experiment on HT29 colon was 9.56 µM; in the experiment on OVCAR-4 ovarian, 10.4 µM; in the experiment on COLO 205 colon, 11.6 µM; with SN12C renal, 15.8 µM. Further, the TGI with MOLT-4 leukemia, in the experiment on RPMI-8226 leukemia, with SF-295 CNS, in the experiment with HOP-92 NSCLC, with 786-0 renal and in the experiment on PC-3 prostate was above 25 µM in each case. Besides, the TGI in the experiment on HT29 colon, in the experiment with OVCAR-4 ovarian, in the experiment on COLO 205 colon and with SN12C renal was above 25 µM throughout.

`COC(=O)c1cc2oc(/C=C3/SC(=S)N(N)C3=O)cc2n1Cc1ccccc1`: the GI50 in the experiment with MOLT-4 leukemia is 4.23 µM; in the experiment with RPMI-8226 leukemia it was above 27.5 µM; with SF-295 CNS it was 1.76 µM; with HOP-92 NSCLC it was 1.47 µM; in the experiment with 786-0 renal, 2.84 µM; in the experiment with PC-3 prostate, 9.61 µM. Further, the GI50 is 7.47 µM in the experiment with HT29 colon, 4.68 µM with OVCAR-4 ovarian, 5.42 µM in the experiment with COLO 205 colon and 12 µM with SN12C renal. Also, the TGI with MOLT-4 leukemia is above 100 µM; with RPMI-8226 leukemia, above 100 µM; in the experiment with SF-295 CNS, 6.02 µM; in the experiment with HOP-92 NSCLC it was 12.8 µM; in the experiment with 786-0 renal, 8.53 µM; in the experiment on PC-3 prostate it was above 31.9 µM. Also, the TGI with HT29 colon was 19.4 µM; in the experiment with OVCAR-4 ovarian, 42.8 µM; in the experiment on COLO 205 colon, 20.7 µM; with SN12C renal, above 43.3 µM.

For the compound `O=c1cnnc(N/N=C/c2ccccc2O)[nH]1`, the GI50 in the experiment on MOLT-4 leukemia is 0.973 µM; in the experiment on RPMI-8226 leukemia it was 1.23 µM; in the experiment with SF-295 CNS it was 3.11 µM; in the experiment on HOP-92 NSCLC, 4.75 µM; with 786-0 renal, 5.1 µM; in the experiment on PC-3 prostate it was 2.99 µM. Moreover, the GI50 in the experiment with HT29 colon is 0.646 µM; in the experiment on OVCAR-4 ovarian, 0.264 µM; with COLO 205 colon, 0.33 µM; in the experiment on SN12C renal it was 4.21 µM. Further, the TGI in the experiment with MOLT-4 leukemia is above 100 µM; with RPMI-8226 leukemia, above 72.9 µM; in the experiment with SF-295 CNS, above 100 µM; in the experiment with HOP-92 NSCLC, above 100 µM; with 786-0 renal it was above 100 µM; in the experiment with PC-3 prostate, above 100 µM. Further, the total growth inhibition concentration (TGI) with HT29 colon was above 100 µM; in the experiment on OVCAR-4 ovarian, above 23.8 µM; with COLO 205 colon, above 100 µM; in the experiment on SN12C renal it was above 100 µM.

Consider `CC1(C)N=C(N)N=C(N)N1c1ccc(Cl)cc1`, for which the GI50 with MOLT-4 leukemia was 62.3 µM; with RPMI-8226 leukemia, above 100 µM; in the experiment with SF-295 CNS it was 2.9 µM; with HOP-92 NSCLC, above 100 µM; in the experiment with 786-0 renal, 0.414 µM; in the experiment on PC-3 prostate, 6.07 µM. Moreover, the GI50 with HT29 colon is 1.19 µM; in the experiment with OVCAR-4 ovarian, 14.9 µM; with COLO 205 colon it was 21.4 µM; in the experiment on SN12C renal it was 7.25 µM. The total growth inhibition concentration (TGI) was above 100 µM in the experiment with MOLT-4 leukemia; above 100 µM in the experiment with RPMI-8226 leukemia; 9.94 µM in the experiment with SF-295 CNS; above 100 µM with HOP-92 NSCLC; above 100 µM with 786-0 renal; above 100 µM in the experiment with PC-3 prostate. For the same compound, the TGI in the experiment with HT29 colon, with OVCAR-4 ovarian, with COLO 205 colon and in the experiment with SN12C renal was above 100 µM in each case.

Regarding `CC(C)(C)c1cc(NC(=O)Nc2ccc(-c3cn4c(n3)sc3cc(OCCN5CCOCC5)ccc34)cc2)no1`, the TGI in the experiment with MOLT-4 leukemia is > 100 µM and 23.6 µM and > 10 µM; with SF-295 CNS it was 18.1 µM and 2.55 µM and > 10 µM; in the experiment on HOP-92 NSCLC, 14.8 µM and 5.01 µM and > 10 µM; in the experiment with 786-0 renal, 15.8 µM and 3.29 µM and > 10 µM; in the experiment with PC-3 prostate it was 19.1 µM and 14.2 µM and > 10 µM; in the experiment with HT29 colon, 27 µM and 11.4 µM and > 10 µM. In addition, the TGI in the experiment with OVCAR-4 ovarian is 15.8 µM and 5.96 µM and > 10 µM; in the experiment on COLO 205 colon, > 45.7 µM and 8.31 µM and 8.55 µM; in the experiment with SN12C renal, 24.9 µM and 13.2 µM and > 10 µM. Moreover, the GI50 in the experiment on RPMI-8226 leukemia is 0.363 µM and 0.16 µM and 0.34 µM; with SF-295 CNS it was 1.01 µM and 0.404 µM and 1.42 µM; with HOP-92 NSCLC it was 3.25 µM and 0.398 µM and 1.59 µM; with 786-0 renal, 2.85 µM and 0.616 µM and 4.06 µM; in the experiment on PC-3 prostate, 4.63 µM and 0.771 µM and 5.06 µM; with HT29 colon, 5.61 µM and 0.633 µM and 4.28 µM. Besides, the GI50 in the experiment with OVCAR-4 ovarian was 4.61 µM and 1.38 µM and 3.38 µM; in the experiment with COLO 205 colon, 7.75 µM and 1.21 µM and 1.76 µM.

`CC(C)[C@@](O)(c1ccc2cc(OC(F)F)c(OC(F)F)cc2c1)c1cn[nH]n1`: the GI50 in the experiment on MOLT-4 leukemia was 21.7 µM; with RPMI-8226 leukemia it was 17.3 µM; with SF-295 CNS, 14.2 µM; in the experiment on HOP-92 NSCLC it was 13.8 µM; in the experiment on 786-0 renal, 17.2 µM; in the experiment with PC-3 prostate, 14.9 µM. The GI50 was 18.6 µM in the experiment with HT29 colon, 17.1 µM in the experiment with OVCAR-4 ovarian, 17.2 µM with COLO 205 colon and 17.1 µM in the experiment on SN12C renal. For the same compound, the TGI in the experiment on MOLT-4 leukemia is 70.7 µM; in the experiment with RPMI-8226 leukemia it was 61.4 µM; in the experiment on SF-295 CNS, 29.7 µM; with HOP-92 NSCLC it was 30.2 µM; in the experiment with 786-0 renal, 34.1 µM; in the experiment with PC-3 prostate, 36 µM. The TGI was found to be 41.6 µM in the experiment on HT29 colon, 86 µM in the experiment with OVCAR-4 ovarian, 35.1 µM in the experiment on COLO 205 colon and 35.2 µM with SN12C renal.

On to `N/N=C(\c1nc2ccc([N+](=O)[O-])cc2[nH]c1=O)C(O)c1ccc(Cl)c(Cl)c1` (configuration not stated), for which the concentration for total growth inhibition (TGI) in the experiment with MOLT-4 leukemia, in the experiment on RPMI-8226 leukemia, in the experiment on SF-295 CNS, with HOP-92 NSCLC, with 786-0 renal and with PC-3 prostate was above 100 µM in each case. Besides, the total growth inhibition concentration (TGI) in the experiment on HT29 colon, in the experiment with OVCAR-4 ovarian, with COLO 205 colon and in the experiment with SN12C renal was above 100 µM each time.
